Experimental findings from patent US5242945A, “Tetronic and thiotetronic acid derivatives as phospholipase A2 inhibitors” (American Home Products Corporation, priority 1991, dated 1993) are described below.

The target in one experiment is T1, human platelet PLA2 (Homo sapiens, UniProt P14555).
T1 construct: platelet acid extract PLA2; from tissue; host or cells: human platelets, semipurified acid extract
T1 sequence (P14555 21-144): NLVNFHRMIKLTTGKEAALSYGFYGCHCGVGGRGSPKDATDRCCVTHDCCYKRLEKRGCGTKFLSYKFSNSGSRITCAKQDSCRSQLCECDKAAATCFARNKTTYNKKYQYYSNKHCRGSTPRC
Description: in vitro isolated phospholipase A2 assay, human platelet PLA2. In kind it is biochemical. The settings on record: for inhibition at 10 µM: + values given without explanation, read-out: % Inhibition HP (human platelet). The essentials:
(§1)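 PLA2 from semipurified human platelet acid extract or purified human synovial fluid, preincubated 30 min at room temperature with compound. ³H-arachidonate-labelled E. coli substrate then added in Tris-HCl pH 7.5, with enzyme giving about 12% hydrolysis. Reaction ran 10 min at 37° C; released arachidonic acid recovered on NH2 columns and measured by β-counting.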

Experiment [1] concerns the target T2, human synovial fluid PLA2 (Homo sapiens, UniProt P14555).
T2 construct: Purified human synovial fluid; from tissue; host or cells: human synovial fluid
T2 sequence (P14555 21-144): T1 sequence (P14555 21-144)
Description: in vitro isolated phospholipase A2 assay, human synovial fluid PLA2. Format: biochemical. The conditions noted are these: for inhibition at 10 µM: + values given without explanation, read-out: % Inhibition HSF (human synovial fluid). A digest of the protocol: as §1

The next experiment has as its system cyclooxygenase (PGE2). As to the kind of experiment: resident murine peritoneal macrophage assay, PGE2. In kind it is cell-based, mouse (Swiss Webster). The conditions noted are these: Mus musculus, Peritoneal macrophage; for IC50: read-out: PGE2 zymosan IC50. A digest of the protocol:
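PGE2 release quantified by radioimmunoassay from supernatants after 2 hours stimulation (zymosan […] or arachidonic acid 2 μM) of overnight-cultured murine peritoneal macrophage monolayers (female Swiss Webster, 4×10^6 cells). Compound added 5 minutes beforehand in serum-free M199; values given as percent inhibition versus zymosan control.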

The subject of another experiment is 5-lipoxygenase (LTC4). Description: resident murine peritoneal macrophage assay, LTC4. In kind it is cell-based, mouse (Swiss Webster). The settings on record: for LTC4 AA % Inhibition: arachidonic acid stimulation; for IC50: read-out: LTC4 zymosan IC50. The procedure: The ability of the compounds of the invention to act as inhibitors of the enzymes 5-lipoxygenase and cyclooxygenase is measured in the resident murine peritoneal macrophage assay.
Resident peritoneal macrophages are collected from female Swiss Webster mice (49 days old, 20-25 gms, Buckshire) by lavaging with 7-8 ml Hanks Balanced Salt Solution (HBSS) without Ca^++ and Mg^++ (GIBCO). The lavage fluid from several mice is pooled and centrifuged at 4° C. for 10 minutes at 400 xg.
Residual serum and cellular debris are removed from the monolayers by washing 3× with 2 ml HBSS containing Ca^++ and Mg^++. Macrophages are preincubated for 5 minutes with 1 ml serum-free M199 containing 10 μl dimethyl sulfoxide (DMSO) vehicle or test compound prior to cell activation with zymosan ([…]) or arachidonic acid (AA) (2 μM). After 2 hours, the supernatants are removed and either assayed for LTC4 and PGE2 by radioimmunoassay (RIA) directly or stored at -20° C. In all cases, results are expressed as ng metabolite/4×10^6 cells.
Raw data (dpm) may be stored directly onto an "Autostart" tape using the HP85 in room C-096. The raw data are converted to ng metabolite/4-10^6cells using the standard curve by a "RIANAL" program (HP85) or a "NONLIN" program (HP9816). Results are then expressed as percent inhibition of zymosan induced, leukotriene or prostaglandin synthesis (control) using the equation: [formula]

Another experiment deals with TPA-induced ear edema. As to the kind of experiment: 12-o-tetradecanoylphorbol acetate (TPA)-induced murine ear edema assay. Format: in vivo, mouse (Swiss Webster). The conditions noted are these: TPA; for ED50: Mus musculus, sc, 4 h, read-out: Subcutaneous ED50; for ED50 / Subcutaneous % Inhibition at 50 m/kg: subcutaneous. A digest of the protocol: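 Female Swiss Webster mice (~8 weeks, groups of six) got AA 2 mg/ear or TPA 2 μg/ear topically on the right ear, acetone on the left. Compounds dosed topically or s.c. 30 min before AA or 30 min after TPA. Ear thickness difference measured by caliper at 1 h (AA) or 4 h (TPA), expressed as % change from control.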

[2] abbreviates: Mus musculus, Peritoneal macrophage, zymosan stimulation.

As for `CCCCC/C=C\C/C=C\CCCCCCCC(=O)C1=C(O)COC1=O` [Example 14, (Z,Z)-4-Hydroxy-3-(1-oxo-9,12-octadecadienyl)-2(5H)-furanone], the IC50 at human platelet PLA2 (Table IV, read-out: IC50 HP (human platelet)) is 1700 nM; in experiment [1] (Table IV, read-out: IC50 HSF (human synovial fluid)), 480 nM; in the experiment with cyclooxygenase (PGE2) (zymosan stimulation) it was 4000 nM. In addition, the inhibition at 10 µM on human platelet PLA2 was 44%; in experiment [1] it was 95%. The inhibition at 5 µM in the experiment on cyclooxygenase (PGE2) (arachidonic acid stimulation, 5 μM, read-out: PGE2 AA % Inhibition) came out at 38%. For the same molecule, in the experiment on 5-lipoxygenase (LTC4) (dose 5 (unit not given)), the “LTC4 AA % Inhibition” value came out at 61%. The median effective dose (ED50) with TPA-induced ear edema was determined as 118 mg/kg. Moreover, the “Subcutaneous % Inhibition at 50 m/kg” value came out at 37% with TPA-induced ear edema (on line of vehicle EPW) and 21% in the experiment with TPA-induced ear edema (on line of vehicle acetone). Also, the “Topical % Inhibition at 200 μg” value in the experiment with TPA-induced ear edema (vehicle EPW) was determined as 51%; in the experiment with TPA-induced ear edema (vehicle acetone) it was 28%.
`CCCCC/C=C\C/C=C\C/C=C\CCCCC(=O)C1=C(O)COC1=O` [Example 20, (Z,Z,Z)-4-Hydroxy-3-(1-oxo-6,9,12-octadecatrienyl)-2(5H)-furanone]: the inhibition at 10 µM turned out to be 62% at human platelet PLA2 and 81% in experiment [1]. Also, the inhibition at 1 µM with cyclooxygenase (PGE2) (arachidonic acid stimulation, 1.0 μM, read-out: PGE2 AA % Inhibition) worked out at 1%. Further, the 50% inhibitory concentration (IC50) in the experiment on cyclooxygenase (PGE2) (zymosan stimulation) and with 5-lipoxygenase (LTC4) (setting [2]) was 700 nM throughout. Besides, the “LTC4 AA % Inhibition” value with 5-lipoxygenase (LTC4) (dose 1.0 (unit not given)) is listed as -51%. Also, in the experiment on TPA-induced ear edema, the ED50 amounted to 31 mg/kg. In addition, in the experiment with TPA-induced ear edema (on line of vehicle acetone), the “Subcutaneous % Inhibition at 50 m/kg” value was determined as 76%. The “Topical % Inhibition at 200 μg” value is 81% in the experiment with TPA-induced ear edema (vehicle EPW) and 80% in the experiment on TPA-induced ear edema (vehicle acetone).
As to `CCCCCCCC/C=C\CCCCCCCC(=O)C1=C(O)CSC1=O` [Example 47, 4-Hydroxy-3-[(Z)-1-oxo-9-octadecenyl]-2(5H)-thiophenone], the inhibition at 10 µM at human platelet PLA2 is 13.8%; in experiment [1] it was 34.8%. Further, in the experiment on cyclooxygenase (PGE2) (arachidonic acid stimulation, 0.3 μM, read-out: PGE2 AA % Inhibition), the inhibition at 0.3 µM is -26%. Moreover, the inhibition at 0.1 µM is 48.4% in the experiment with cyclooxygenase (PGE2) (zymosan stimulation, 0.1 μM) and 46.2% in the experiment on 5-lipoxygenase (LTC4) (Mus musculus, Peritoneal macrophage, zymosan stimulation, 0.1 μM). The IC50 in the experiment with cyclooxygenase (PGE2) (zymosan stimulation) and in the experiment on 5-lipoxygenase (LTC4) (setting [2]) was 100 nM each time. In addition, the “LTC4 AA % Inhibition” value with 5-lipoxygenase (LTC4) (dose 0.3 (unit not given)) came to 9%. In addition, the “Subcutaneous % Inhibition at 50 m/kg” value with TPA-induced ear edema (on line of vehicle acetone) was found to be 77%. The “Topical % Inhibition at 200 μg” value amounted to 69% with TPA-induced ear edema (vehicle EPW) and 74% with TPA-induced ear edema (vehicle acetone).
For the molecule `CC/C=C\C/C=C\C/C=C\CCCCCCCC(=O)C1=C(O)COC1=O` [Example 15, (Z,Z,Z)-4-Hydroxy-3-(1-oxo-9,12,15-octadecatrienyl)-2(5H)-furanone], the inhibition at 10 µM on human platelet PLA2 amounted to 30%; in experiment [1], 77.5%. In addition, the IC50 in the experiment on cyclooxygenase (PGE2) (zymosan stimulation) came to 350 nM; with 5-lipoxygenase (LTC4) (setting [2]), 450 nM. Also, the “Topical % Inhibition at 200 μg” value in the experiment with TPA-induced ear edema (vehicle acetone) is recorded as 34%.

As usually defined, the IC50 is the concentration at which inhibition is half-maximal. As usually defined, the inhibition is the drop in the measured response relative to a control, in per cent. Usually ED50 stands for the dose at which the effect has come halfway, by size or by number of responders.
